Values of other authors as cited in patent US12514906B2, “Use of C-type natriuretic peptide variants to treat skeletal dysplasia” (BIOMARIN PHARMACEUTICAL INC., priority 2015, dated 2026).
Where no end group is shown, it is not given here.

What was measured:
cGMP production = conditions: CNP-53 compared with CNP-22
NPR-B = conditions: CNP-53 compared with CNP-22

Substance	induction of cGMP production (cGMP production)	binding to NPR-B (NPR-B)	plasma half-life (in vivo in humans)	in vivo half-life (normal human)
CNP-53: active 53-amino acid peptide generated from pro-CNP by furin cleavage (DLRVDTKSRAAWARLLQEHPNARKYKGANKKGLSKGCFGLKLDRIGSMSGLGC; ends and bridges not checked; cysteine pairing not given here; UniProt P23582 74-126, looked up)	dose-dependent and similar fashion	bind similarly	–	–
CNP: mature 22-amino acid wild type C-type natriuretic peptide	dose-dependent and similar fashion	bind similarly	2.6 min	2.6 min
